Assay [1] deals with HCT116^+/+. Put plainly: Antiproliferative assay (MTS, 72 h) on HCT116 wild type. Particulars: MTS, 72 h incubation, read-out: Activity IC50 HCT116^+/+. In kind it is cell-based, human. The method, then: (§1) All of the synthesized compounds were tested for their antiproliferative activity against human colon cancer (Table 1). We used both the wild-type and p53-negative cell lines (HCT116^+/+ and HCT116^−/−, respectively). Mutations in the TP53 gene are present in more than 50% of all cancers and often specifically correspond to a difficult therapy, resistance or a bad prognosis[60]–[63]. The active compounds were additionally tested for their cytotoxicity against normal human fibroblasts. We used 5-fluorouracil (5-FLU), doxorubicin (DOX) and CP-31398 as the standards. 5-FLU is one of the first antimetabolites that was dedicated for cancer treatment and is still used for a wide range of cancers including colon carcinoma. Doxorubicin is a DNA topoisomerase II poison with a high intercalating potency, which is able to induce apoptosis through the p53 pathway. Although DOX has been described as being ineffective in some p53 mutants, its level of activity against the p53 null lines is similar. CP-31398, on the other hand, is an experimental drug in the clinical phase and its mechanism of action is through the reactivation some of p53 mutants. Its activity against the p53 null cell lines is greatly diminished and is actually lower than its cytotoxicity.
(§2) The human colon cancer cell line HCT116 wild type was obtained from ATCC and the normal human fibroblast cell lines NHDF were obtained from PromoCell. The human colon cancer cell line HCT116 with a p53 deletion (p53^−/−) was kindly provided by Prof. M. Rusin from the Maria Sklodowska-Curie Memorial Cancer Centre and Institute of Oncology in Gliwice, Poland[89]. The cells were grown as monolayer cultures in Dulbecco’s modified Eagle’s medium with the antibiotic gentamicin (200 μL/100 mL medium) in 75 cm^2 flasks (Nunc). The DMEM for the HCT116 were supplemented with 12% heat-inactivated fetal bovine serum (Sigma-Aldrich, St. Louis, MO, USA) and for NHDF with 15% non-inactivated fetal bovine serum (Sigma Aldrich, St. Louis, MO, USA). The cells were cultured under standard conditions at 37 °C in a humidified atmosphere at 5% CO2.
(§3) The cells were seeded in 96-well plates (Nunc) at a density of 5,000 cells/well (HCT116) and 4,000 cells/well (NHDF) and incubated at 37 °C for 24 h. The assay was performed following a 72 h incubation with varying concentrations of the compounds that were being tested. Then, 20 µL of CellTiter 96® AQueous One Solution-MTS (Promega) was added to each well (with 100 µL DMEM without phenol red) and incubated for 1 h at 37 °C. The optical densities of the samples were analyzed at 490 nm using a Synergy 4 multi-plate reader (BioTek, Winooski, VT, USA). The results are expressed as the percentage of the control and were calculated as the inhibitory concentration (IC50) values (using a GraphPad Prism 7). The IC50 parameter was defined as the compound concentration that was necessary to reduce the proliferation of cells to 50% of the untreated control. Each individual compound was tested in triplicate in a single experiment with each experiment being repeated three or four times.

The subject of assay [2] is HCT116^−/−. Put plainly: Antiproliferative assay (MTS, 72 h) on HCT116 with p53 deletion. In kind it is cell-based, human. The settings on record: for IC50: MTS, 72 h incubation. The method, then:
as §1, §2, §3

The subject of assay [3] is NHDF. As to the kind of experiment: Cytotoxicity (MTS, 72 h) against normal human fibroblasts. In kind it is cell-based. The settings on record: MTS, 72 h incubation. On the procedure: as §1, §2, §3

The values that follow come from article PMC6476888, “Design and synthesis of anticancer 1-hydroxynaphthalene-2-carboxanilides with a p53 independent mechanism of action” (Scientific Reports, 2019).

Read-outs that look alike come from different tables or passages of the source.

For `COc1ccccc1NC(=O)c1ccc2ccccc2c1O` [2a], the IC50 in assay [1] and in assay [2] was above 25 µM throughout.

As for `COc1cccc(NC(=O)c2ccc3ccccc3c2O)c1` [2b], the IC50 was 8.51 ± 1.69 µM in assay [1], 24.1 ± 3.54 µM in assay [2] and above 25 µM in assay [3].

Take `COc1ccc(NC(=O)c2ccc3ccccc3c2O)cc1` [2c]: the IC50 in assay [1] and in assay [2] was above 25 µM throughout.

As for `COc1cc(NC(=O)c2ccc3ccccc3c2O)cc(OC)c1` [2e, N-(3,5-dimethoxyphenyl)−1-hydroxynaphthalene-2-carboxamide], the IC50 in assay [1] (Homo sapiens, HCT-116) was above 25 µM; in assay [2] (Homo sapiens, HCT-116), above 25 µM; in assay [3] (Homo sapiens, NHDF) it was above 25 µM.

Regarding `COc1cc(NC(=O)c2ccc3ccccc3c2O)cc(OC)c1OC` [2f], the IC50 in assay [1] is 6.54 ± 2.42 µM; in assay [2] it was 8.78 ± 2.13 µM; in assay [3], above 25 µM.

Regarding `COc1ccc(C(F)(F)F)cc1NC(=O)c1ccc2ccccc2c1O` [2i], the IC50 was above 25 µM in assay [1] (Homo sapiens, HCT-116) and above 25 µM in assay [2] (Homo sapiens, HCT-116).

On to `Cc1ccccc1NC(=O)c1ccc2ccccc2c1O` [3a], for which the IC50 in assay [1] and in assay [2] was above 25 µM throughout.

Regarding `Cc1cccc(NC(=O)c2ccc3ccccc3c2O)c1` [3b], the IC50 in assay [1] and in assay [2] was above 25 µM in each case.

Turning to `Cc1ccc(NC(=O)c2ccc3ccccc3c2O)cc1` [3c], the IC50 in assay [1] and in assay [2] was above 25 µM throughout.

In the case of `Cc1ccc(C)c(NC(=O)c2ccc3ccccc3c2O)c1` [3d], the IC50 in assay [1] (Homo sapiens, HCT-116) was above 25 µM; in assay [2] (Homo sapiens, HCT-116), above 25 µM.

In the case of `Cc1cccc(C)c1NC(=O)c1ccc2ccccc2c1O` [3e], the IC50 was above 25 µM in assay [1] (Homo sapiens, HCT-116) and above 25 µM in assay [2] (Homo sapiens, HCT-116).

For `Cc1cc(C)cc(NC(=O)c2ccc3ccccc3c2O)c1` [3f], the IC50 in assay [1] (Homo sapiens, HCT-116) was 19.3 ± 1.68 µM; in assay [2] (Homo sapiens, HCT-116), above 25 µM; in assay [3] (Homo sapiens, NHDF), above 25 µM.

As for `O=C(Nc1ccccc1F)c1ccc2ccccc2c1O` [4a], the IC50 in assay [1] and in assay [2] was above 25 µM throughout.

As to `O=C(Nc1cccc(F)c1)c1ccc2ccccc2c1O` [4b], the IC50 was 1.88 ± 0.33 µM in assay [1], 9.02 ± 1.91 µM in assay [2] and above 25 µM in assay [3].

For the compound `O=C(Nc1ccc(F)cc1)c1ccc2ccccc2c1O` [4c], the IC50 is 2.49 ± 0.61 µM in assay [1], 5.01 ± 1.12 µM in assay [2] and above 25 µM in assay [3].

For the compound `O=C(Nc1ccc(C(F)(F)F)c(F)c1)c1ccc2ccccc2c1O` [4w], the IC50 in assay [1] (Homo sapiens, HCT-116) was determined as 3.25 ± 0.94 µM; in assay [2] (Homo sapiens, HCT-116) it was 4.82 ± 1.46 µM; in assay [3] (Homo sapiens, NHDF) it was 22.8 ± 2.69 µM.

Take `O=C(Nc1c(F)c(F)c(Br)c(F)c1F)c1ccc2ccccc2c1O` [4y]: the IC50 in assay [1] turned out to be 2.41 ± 0.69 µM; in assay [2], 5.68 ± 1.37 µM; in assay [3] it was 7.87 ± 1.37 µM.

Regarding `O=c1[nH]cc(F)c(=O)[nH]1` [5-FLU, 5-fluorouracil, reference compound], the IC50 was 4.42 ± 0.7 µM in assay [1] (Homo sapiens, HCT-116); 4.69 ± 0.31 µM in assay [2] (Homo sapiens, HCT-116); above 25 µM in assay [3] (Homo sapiens, NHDF).

`O=C(Nc1ccccc1Cl)c1ccc2ccccc2c1O` [5a]: the IC50 is 16.5 ± 2.25 µM in assay [1], 22.4 ± 3.58 µM in assay [2] and above 25 µM in assay [3].

For the compound `O=C(Nc1cccc(Cl)c1)c1ccc2ccccc2c1O` [5b], the IC50 was 4.7 ± 0.4 µM in assay [1], 1.78 ± 0.32 µM in assay [2] and above 25 µM in assay [3].

For the compound `O=C(Nc1ccc(Cl)cc1)c1ccc2ccccc2c1O` [5c], the IC50 in assay [1] was 9.62 ± 0.75 µM; in assay [2], 9.41 ± 0.78 µM; in assay [3] it was above 25 µM.

Take `O=C(Nc1cccc(Cl)c1Cl)c1ccc2ccccc2c1O` [5d]: the IC50 in assay [1] is 4.66 ± 0.58 µM; in assay [2] it was 8.25 ± 0.64 µM; in assay [3], above 25 µM.

As for `O=C(Nc1ccc(Cl)cc1Cl)c1ccc2ccccc2c1O` [5e], the IC50 in assay [1] is 1.95 ± 0.5 µM; in assay [2] it was 6.06 ± 1.13 µM; in assay [3] it was above 25 µM.

On to `O=C(Nc1cc(Cl)ccc1Cl)c1ccc2ccccc2c1O` [5f], for which the IC50 in assay [1] was 7.45 ± 0.85 µM; in assay [2], 7.19 ± 1.15 µM; in assay [3], above 25 µM.

Regarding `O=C(Nc1c(Cl)cccc1Cl)c1ccc2ccccc2c1O` [5g], the IC50 in assay [1] and in assay [2] was above 25 µM in each case.

As to `O=C(Nc1ccc(Cl)c(Cl)c1)c1ccc2ccccc2c1O` [5h], the values for the IC50 in assay [1], in assay [2] and in assay [3] were 5.15 ± 0.5 µM, 4.74 ± 0.82 µM and above 25 µM, respectively. For the same compound, the “selectivity towards the p53 null cells (HCT116 p53^−/− vs wild type)” value in assay [2] was “not selective”.

Consider `O=C(Nc1cc(Cl)cc(Cl)c1)c1ccc2ccccc2c1O` [5i], for which the IC50 was 2.32 ± 0.26 µM in assay [1], 2.89 ± 0.38 µM in assay [2] and 11.5 ± 0.88 µM in assay [3].

For `O=C(Nc1cc(Cl)c(Cl)cc1Cl)c1ccc2ccccc2c1O` [5j], the IC50 is 3 ± 0.24 µM in assay [1], 6.21 ± 0.66 µM in assay [2] and 20.2 ± 0.79 µM in assay [3].

For the compound `O=C(Nc1c(Cl)cc(Cl)cc1Cl)c1ccc2ccccc2c1O` [5k], the values for the IC50 in assay [1], in assay [2] and in assay [3] were 19.4 ± 1.27 µM, above 25 µM and above 25 µM, respectively.

As for `O=C(Nc1cc(Cl)c(Cl)c(Cl)c1)c1ccc2ccccc2c1O` [5l], the IC50 in assay [1] was found to be 1.31 ± 0.15 µM; in assay [2], 2.86 ± 0.33 µM; in assay [3], 7.01 ± 0.42 µM.

In the case of `O=C(Nc1ccc(Br)cc1Cl)c1ccc2ccccc2c1O` [5n], the IC50 in assay [1] was found to be 2.33 ± 0.95 µM; in assay [2], 9.79 ± 1.95 µM; in assay [3], 23.4 ± 0.86 µM.

Consider `O=C(Nc1ccc(C(F)(F)F)cc1Cl)c1ccc2ccccc2c1O` [5o], for which the results for the IC50 in assay [1], in assay [2] and in assay [3] were 4.92 ± 1.32 µM, 5.41 ± 1.11 µM and 13.2 ± 1.97 µM, respectively.

As for `O=C(Nc1cc(Br)ccc1Cl)c1ccc2ccccc2c1O` [5q], the results for the IC50 in assay [1], in assay [2] and in assay [3] were 4.18 ± 1.49 µM, 5.4 ± 2.04 µM and above 25 µM, respectively.

With `O=C(Nc1cc(C(F)(F)F)ccc1Cl)c1ccc2ccccc2c1O` [5r], the IC50 in assay [1] (Homo sapiens, HCT-116) is 2.48 ± 0.31 µM; in assay [2] (Homo sapiens, HCT-116), 1.46 ± 0.21 µM; in assay [3] (Homo sapiens, NHDF) it was 12.4 ± 1.14 µM.

Take `O=C(Nc1ccc(Br)c(Cl)c1)c1ccc2ccccc2c1O` [5t]: the IC50 is 12.3 ± 0.79 µM in assay [1], 12.6 ± 0.69 µM in assay [2] and above 25 µM in assay [3]. Further, the “selectivity towards the p53 null cells (HCT116 p53^−/− vs wild type)” value in assay [2] is recorded as “not selective”.

On to `O=C(Nc1ccccc1Br)c1ccc2ccccc2c1O` [6a], for which the IC50 in assay [1] is 22.5 ± 3.62 µM; in assay [2], above 25 µM; in assay [3], above 25 µM.

For the compound `O=C(Nc1cccc(Br)c1)c1ccc2ccccc2c1O` [6b], the IC50 in assay [1] is 9.19 ± 0.98 µM; in assay [2], 8.73 ± 0.89 µM; in assay [3], 15.2 ± 2.48 µM.

For the compound `O=C(Nc1ccc(Br)cc1)c1ccc2ccccc2c1O` [6c], the values for the IC50 in assay [1], in assay [2] and in assay [3] were 5.25 ± 0.67 µM, 11 ± 0.97 µM and above 25 µM, respectively.

Consider `O=C(Nc1ccc(Br)cc1Br)c1ccc2ccccc2c1O` [6d], for which the IC50 in assay [1] was 4.56 ± 0.43 µM; in assay [2], 4.61 ± 0.72 µM; in assay [3] it was above 25 µM.

`O=C(Nc1cc(Br)ccc1Br)c1ccc2ccccc2c1O` [6e]: the IC50 was 5.24 ± 0.28 µM in assay [1], 5.85 ± 0.61 µM in assay [2] and above 25 µM in assay [3].

`O=C(Nc1c(Br)cccc1Br)c1ccc2ccccc2c1O` [6f]: the IC50 in assay [1] and in assay [2] was above 25 µM each time.

For the compound `O=C(Nc1c(Br)cc(Br)cc1Br)c1ccc2ccccc2c1O` [6g], the IC50 in assay [1] and in assay [2] was above 25 µM in each case.

Regarding `O=C(Nc1ccccc1C(F)(F)F)c1ccc2ccccc2c1O` [7a], the IC50 is above 25 µM in assay [1] and 21.4 ± 1.24 µM in assay [2].

For the compound `O=C(Nc1ccc(Cl)cc1C(F)(F)F)c1ccc2ccccc2c1O` [7h], the IC50 in assay [1] and in assay [2] was above 25 µM each time.

For `O=C(Nc1ccc(Br)cc1C(F)(F)F)c1ccc2ccccc2c1O` [7i], the IC50 in assay [1] and in assay [2] was above 25 µM throughout.

With `O=C(Nc1ccc(C(F)(F)F)cc1[N+](=O)[O-])c1ccc2ccccc2c1O` [8d], the IC50 in assay [1] and in assay [2] was above 25 µM throughout.

Consider `O=C(Nc1ccccc1)c1ccc2ccccc2c1O` [compound 1], for which the IC50 in assay [1] (Homo sapiens, HCT-116) is above 25 µM; in assay [2] (Homo sapiens, HCT-116), above 25 µM.
